# In PMC7558026, “Exploring and applying the substrate promiscuity of a C-glycosyltransferase in the chemo-enzymatic synthesis of bioactive C-glycosides” (Nature Communications, 2020):
# “And” between values parts separate entries of the source, which are not always exact repeats. Equal entries are not always repeated.
# Legend:
# SGLT2 = molecular target: T1, SGLT2 (Homo sapiens, UniProt P31639); test: 1-NBDG uptake in HEK293 cells stably expressing SGLT2; assay type: cell-based; conditions: triplicate; for inhibition at 10 µM: HEK293, compound at 10 μM, read-out: SGLT2 inhibitory rates; for SGLT2 inhibitory rates: compound at 10 μM, 10 µM
# T1 construct: Human full-length SGLT2 cDNA (NM_003041.3) was synthesized; expressed in transfected cells; host or cells: HEK293, retroviral transduction with pMSCVpuro-SGLT2, puromycin selected
# T1 sequence (P31639 1-672): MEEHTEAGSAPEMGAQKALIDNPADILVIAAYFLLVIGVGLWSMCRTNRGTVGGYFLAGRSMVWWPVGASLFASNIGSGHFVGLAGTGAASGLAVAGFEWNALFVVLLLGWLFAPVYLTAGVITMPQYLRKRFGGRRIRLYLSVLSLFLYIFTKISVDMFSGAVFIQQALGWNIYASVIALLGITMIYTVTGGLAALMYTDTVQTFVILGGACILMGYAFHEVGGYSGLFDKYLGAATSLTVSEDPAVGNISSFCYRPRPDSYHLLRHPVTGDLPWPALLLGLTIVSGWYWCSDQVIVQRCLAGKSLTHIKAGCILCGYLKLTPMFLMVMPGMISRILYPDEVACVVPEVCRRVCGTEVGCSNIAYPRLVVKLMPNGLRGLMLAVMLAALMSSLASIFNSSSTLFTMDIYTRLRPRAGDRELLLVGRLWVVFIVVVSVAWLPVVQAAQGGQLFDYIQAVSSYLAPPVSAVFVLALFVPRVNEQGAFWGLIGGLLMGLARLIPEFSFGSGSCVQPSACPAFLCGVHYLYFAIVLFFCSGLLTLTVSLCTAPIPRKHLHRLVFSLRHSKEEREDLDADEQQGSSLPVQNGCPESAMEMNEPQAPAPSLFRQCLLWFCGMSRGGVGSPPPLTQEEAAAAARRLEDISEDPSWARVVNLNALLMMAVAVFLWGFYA
# SGLT1 = molecular target: T2, SGLT1 (Homo sapiens, UniProt P13866); test: 1-NBDG uptake in HEK293 cells stably expressing SGLT1; assay type: cell-based; conditions: HEK293, compound at 10 μM; triplicate; read-out: SGLT1 inhibitory rates
# T2 construct: The full-length SGLT1 cDNA was obtained by PCR with forward primer; expressed in transfected cells
# T2 sequence (P13866 1-664): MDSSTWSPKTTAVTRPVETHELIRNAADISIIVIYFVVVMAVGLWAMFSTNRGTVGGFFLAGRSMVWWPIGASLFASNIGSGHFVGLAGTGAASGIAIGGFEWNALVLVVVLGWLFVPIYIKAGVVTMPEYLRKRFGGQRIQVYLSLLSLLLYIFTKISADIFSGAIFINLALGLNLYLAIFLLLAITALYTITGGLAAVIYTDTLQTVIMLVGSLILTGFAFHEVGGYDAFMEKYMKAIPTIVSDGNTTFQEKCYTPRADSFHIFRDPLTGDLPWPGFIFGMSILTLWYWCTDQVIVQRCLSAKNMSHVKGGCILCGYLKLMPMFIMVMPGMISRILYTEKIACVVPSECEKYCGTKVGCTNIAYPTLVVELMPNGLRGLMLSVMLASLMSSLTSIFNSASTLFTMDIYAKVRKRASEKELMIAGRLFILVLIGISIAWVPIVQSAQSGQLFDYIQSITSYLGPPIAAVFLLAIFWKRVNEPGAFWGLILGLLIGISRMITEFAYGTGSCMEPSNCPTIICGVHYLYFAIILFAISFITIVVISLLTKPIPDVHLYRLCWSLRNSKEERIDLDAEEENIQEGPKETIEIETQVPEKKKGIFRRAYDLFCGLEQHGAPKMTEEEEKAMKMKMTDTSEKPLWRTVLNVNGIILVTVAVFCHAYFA
# KKAy mice [1] = test: Hypoglycemic effect in T2DM KKAy mice, blood glucose; assay type: in vivo; conditions: individual mice
# Experimental: (§1) To evaluate the hypoglycemic effect of 46a in type 2 diabetes mellitus (T2DM), female KKAy mice weighing 42–48 g were obtained from the Animal Center of the Institute of Laboratory Animal Sciences, Chinese Academy of Medical Sciences and Peking Union Medical College. […] Blood samples were collected at 1, 2, 4, 6, 8, 24, and 48 h after treatment. […] The glucose levels in urine 4 h and 6 h after administration were also determined using a Biosen C-Line Glucose analyzer (EKF Diagnostics, Germany).
# ICR mice = test: Oral glucose-tolerance test (OGTT) in normal ICR mice; assay type: in vivo; conditions: individual mice
# Experimental: The hypoglycemic effect of 46a was firstly evaluated by oral glucose-tolerance test (OGTT) in mice with normal blood glucose levels. Male Institute of Cancer Research (ICR) mice weighing 24–26 g were obtained from Beijing Vital River Laboratory Animal Technology Co., Ltd (Beijing, China) and divided into three groups (n = 7–8). […] After 2 h of fasting, blood samples were collected from the tails for determination of baseline values of blood glucose (0 min). The mice were then orally administered glucose (2 g kg^‒1 BW), and blood samples were collected at 15, 30, 60, and 120 min. A glucose oxidase (GOD) assay was used for blood glucose-level measurement. The values of area under the glucose-time curve (AUC) were calculated.
# KKAy mice [2] = test: Urinary glucose excretion in T2DM KKAy mice; assay type: in vivo; conditions: 46a 100 mg kg^‒1 or dapagliflozin 5mg/kg, individual mice
# Experimental: as §1
# alloxan-induced DM mice = test: Hypoglycemic effect in alloxan-induced diabetic mellitus (DM) mice; assay type: in vivo; conditions: individual mice
# Experimental: Type 1 diabetes mellitus (T1DM) mice were established by intravenous injection of alloxan tetrahydrate (68 mg kg^‒1 BW). […] Nonfasting blood glucose was kinetically monitored at 1, 2, 4, 6, 8, 24, and 48 h after treatment with 46a.
# [3] = tested on: Influenza A/WSN/33 (H1N1); test: microbe, parasite or virus in culture; assay type: cell-based; conditions: read-out: Inhibitory Rates, anti-influenza A virus activity
structure (smiles),measurement,setting,value
"CCOc1ccc(Cc2cc([C@@H]3O[C@H](CO)[C@@H](O)[C@H](O)[C@H]3O)ccc2Cl)cc1 [Dapagliflozin, reference compound]",inhibition at 10 µM,SGLT2,100%
same,SGLT2 inhibitory rates,SGLT2,102.4%
same,inhibition at 10 µM,SGLT1,98.4%
same,blood glucose,"KKAy mice [1]; 0h, KKAy mice, single dose 46a 100 mg kg^‒1 or dapagliflozin 5 mg kg^‒1",376.7 mg/dL and 390 mg/dL and 405.5 mg/dL and 293.3 mg/dL and 575.6 mg/dL and 463.6 mg/dL and 388.1 mg/dL
same,blood glucose,"KKAy mice [1]; 1h, same doses",205.5 mg/dL and 228.8 mg/dL and 391.4 mg/dL and 363.9 mg/dL and 193.8 mg/dL and 248.6 mg/dL and 235.8 mg/dL
same,blood glucose,"KKAy mice [1]; 2h, same doses",279.3 mg/dL and 221.6 mg/dL and 285.4 mg/dL and 256 mg/dL and 184.4 mg/dL and 245.5 mg/dL and 256.8 mg/dL
same,blood glucose,"KKAy mice [1]; 4h, same doses",138 mg/dL and 102 mg/dL and 48.9 mg/dL and 98.1 mg/dL and 137.3 mg/dL and 182.3 mg/dL and 181.7 mg/dL
same,blood glucose,"KKAy mice [1]; 6h, same doses",123.1 mg/dL and 172.3 mg/dL and 164.6 mg/dL and 79.8 mg/dL and 177.1 mg/dL and 134.4 mg/dL
same,blood glucose,"KKAy mice [1]; 8h, same doses",91.6 mg/dL and 196.3 mg/dL and 150.5 mg/dL and 208.1 mg/dL and 124.9 mg/dL and 86.9 mg/dL
same,blood glucose,"KKAy mice [1]; 24h, same doses",254.9 mg/dL and 217.5 mg/dL and 176.2 mg/dL and 237.1 mg/dL and 286.9 mg/dL and 219.8 mg/dL
same,blood glucose,"KKAy mice [1]; 48h, same doses",395.7 mg/dL and 347.1 mg/dL and 229.8 mg/dL and 332.5 mg/dL and 388.1 mg/dL and 274.9 mg/dL
same,"OD505nm (blood glucose, GOD assay) in OGTT","ICR mice; 0 min, ICR mice, oral 46a 100 mg kg^‒1 or dapagliflozin 5 mg kg^‒1",0.188 and 0.144 and 0.165 and 0.159 and 0.17 and 0.15 and 0.177 and 0.146
same,"OD505nm (blood glucose, GOD assay) in OGTT","ICR mice; 15 min after glucose 2 g kg^‒1, oral 46a 100 mg kg^‒1 or dapagliflozin 5 mg kg^‒1",0.243 and 0.23 and 0.198 and 0.207 and 0.185 and 0.182 and 0.211 and 0.199
same,"OD505nm (blood glucose, GOD assay) in OGTT","ICR mice; 30 min after glucose, same doses",0.2 (2×) and 0.22 and 0.193 and 0.178 and 0.196 and 0.205 and 0.204
same,"OD505nm (blood glucose, GOD assay) in OGTT","ICR mice; 60 min after glucose, same doses",0.209 and 0.178 and 0.176 and 0.169 and 0.175 and 0.171 and 0.182 and 0.185
same,"OD505nm (blood glucose, GOD assay) in OGTT","ICR mice; 120 min after glucose, same doses",0.173 and 0.17 and 0.162 and 0.165 (2×) and 0.166 and 0.157 and 0.167
same,glucose in urine,KKAy mice [2]; 4h,13936 mg/dL and 9326 mg/dL and 12440 mg/dL and 15728 mg/dL
same,glucose in urine,KKAy mice [2]; 6h,15122 mg/dL and 8208 mg/dL and 11640 mg/dL and 11138 mg/dL
same,OD505nm (nonfasting blood glucose),"alloxan-induced DM mice; 0h, alloxan-induced DM mice, single dose 46a 100 mg kg^‒1 or dapagliflozin 5 mg kg^‒1",0.567 and 0.574 and 0.561 and 0.564 and 0.434 and 0.496 and 0.426 and 0.589
same,OD505nm (nonfasting blood glucose),"alloxan-induced DM mice; 1h, same doses",0.393 and 0.333 and 0.301 and 0.52 and 0.314 and 0.35 and 0.222 and 0.29
same,OD505nm (nonfasting blood glucose),"alloxan-induced DM mice; 2h, same doses",0.27 and 0.388 and 0.281 and 0.364 and 0.279 and 0.346 and 0.193 and 0.231
same,OD505nm (nonfasting blood glucose),"alloxan-induced DM mice; 4h, same doses",0.352 and 0.41 and 0.322 and 0.471 and 0.197 and 0.266 and 0.208 and 0.227
same,OD505nm (nonfasting blood glucose),"alloxan-induced DM mice; 8h, same doses",0.347 and 0.446 and 0.312 and 0.421 and 0.195 and 0.25 and 0.231 and 0.327
same,OD505nm (nonfasting blood glucose),"alloxan-induced DM mice; 24h, same doses",0.536 and 0.578 and 0.561 and 0.735 and 0.409 and 0.563 and 0.408 and 0.501
same,OD505nm (nonfasting blood glucose),"alloxan-induced DM mice; 48h, same doses",0.513 and 0.594 and 0.579 and 0.796 and 0.531 and 0.647 and 0.477 and 0.584
OCC1OC(c2c(O)cc(O)c(Cc3ccc4nccnc4c3)c2O)C(O)C(O)C1O (stereo not drawn) [Compound 44a],inhibition at 10 µM,SGLT2,> 96%
same,SGLT2 inhibitory rates,SGLT2,96.6%
same,inhibition at 10 µM,SGLT1,31.8%
same,inhibition at 20 µM,"[3]; final concentration 20 μM, — = no inhibition activity",82.8%
"NC(=O)c1ncn([C@@H]2O[C@H](CO)[C@@H](O)[C@H]2O)n1 [Ribavirin, reference compound]",inhibition at 30 µM,[3]; ribavirin (positive control) at 30 μM,85.6%
